Patent US20040058948A1, “Mappicine analogs, methods of inhibiting retroviral reverse transcriptase and methods of treating retroviruses” (priority 2002, published 2004)
Several values for one entry are separate records, joined by “and”; a condition that tells them apart may be missing. Identical values can stand only once.

Key:
[1] = target: RNase H activity of HIV reverse transcriptase (Human immunodeficiency virus type 1 group M subtype B, UniProt P04585); assay: Fluorescence (FRET)-based RNase H activity assay of HIV reverse transcriptase; assay type: biochemical, HIV-1; parameters: final concentration of 2.5 nM of the p51/p66 RT heterodimer in the assay; made in house; conditions: 10 μM inhibitor concentration, activity with analog / without analog x 100
Experimental: Recently, a fluorescence-based assay to perform preliminary screens in search of HIV RNase H inhibitors has been developed. The assay, which is carried out in 96-well microplates and is adaptable to robotics, is the first high-throughput screen for RNase H and is described in further detail in the Experimental section. HIV-1 RT and human RNase H were cloned, and thus comparative analysis of inhibitor action could be conducted simultaneously.
The assay for RNase H activity of HIV reverse transcriptase was the fluorescence-based assay described in detail in the Experimental section and discussed in U.S. Provisional Patent Application Serial No. 60/318,359. Assays were carried out in the absence and in the presence of mappicine analogs (10 μM final concentration). The results are reported as % residual activity, which is the RNase H activity of the enzyme in the presence of the mappicine analog divided by the RNase H activity of the enzyme in the absence of the mappicine analog, multiplied by 100. Alternatively, the results are reported as % inhibition, which is calculated as the ratio of the RNase H activity of the enzyme in the presence of the mappicine analog to the enzyme activity in the absence of the mappicine analog, multiplied by 100, and then subtracting this number from 100.
Assay for Ribonuclease H Activity Based on Fluorescence Resonance Energy Transfer (FRET)
Preparation of the Fluorophore-RNA/Quencher-DNA Hybrid Duplex Substrate.
The RNA/DNA hybrid duplex substrate for use in the assay comprises an RNA oligonucleotide of sequence 5′-GAU CUG AGC CUG GGA GCU-3′, modified at the 3′-end with Aminolink-2 and derivatized with fluorescein isothiocyanate, to provide a modified RNA oligonucleotide of the sequence 5′-GAU CUG AGC CUG GGA GCU-fluorescein-3′, annealed to a complementary DNA oligonucleotide of the sequence 5′-AGC TCC CAG GCT CAG ATC-3′ modified at the 5′-end with Aminolink-2 and derivatized with the FRET acceptor DABCYL succinimidyl ester, to provide a modified DNA oligonucleotide of the sequence 5′-DABCYL-AGC TCC CAG GCT CAG ATC-3′.
To prepare the 3′-fluorescein-RNA/5′-DABCYL-DNA hybrid duplex substrate, a known amount of 3′-fluorescein-RNA was dissolved in 20 mM Tris buffer (pH 8.0, 37° C.) to provide a final concentration of 5 μM. Two equivalents of the 5′-DABCYL-DNA oligonucleotide were added, and the mixture was heated to 90° C. for 5 min and cooled slowly to room temperature to allow duplex formation. The positioning of the fluorescein donor at the 3′-end of the RNA oligonucleotide and the DABCYL acceptor at the 5′-end of the DNA oligonucleotide provides a very close proximity of the donor and acceptor that results in a very intense quenching of the fluorescein emission in the intact RNA/DNA hybrid duplex substrate due to the spectral overlap of the fluorescence emission of fluorescein with the absorption spectrum of DABCYL. In addition, DABCYL is non-fluorescent, and thus cannot contribute any light emission. Both of these factors result in a very low background and provide a high signal-to-noise in the assay measurements. The ratio of the donor fluorescence in the absence and in the presence of its quencher is approximately fifteen-fold.
Microplate Assay Protocol for the Measurement of RNase H Activity Using the RNA/DNA Hybrid Duplex Substrate.
Reaction assay mixtures contained 5 μl of a stock solution of 2.5 μM RNA/DNA hybrid duplex substrate added to 85 μl of assay buffer (50 mM Tris, pH 8.0, 37° C., containing 60 mM KCl and 2.5 mM MgCl2), prepared in the wells of a 96-well fluorescence microtiter plate, and warmed to 37° C. using the temperature control of the SpectraMax Gemini XS microplate spectrofluorometer (Molecular Devices). Reactions were started by the addition of 5 μl of a solution of recombinant HIV-1 reverse transcriptase (usually providing a final concentration of 2.5 nM of the p51/p66 RT heterodimer in the assay), and mixing using the automatic mixing function of the microplate spectrofluorometer. […]

[2] = target: T1, RNA-dependent DNA polymerase activity of HIV reverse transcriptase (Human immunodeficiency virus type 1 group M subtype B, UniProt P04585); assay: RNA-dependent DNA polymerase activity assay of HIV reverse transcriptase; assay type: biochemical, HIV-1; conditions: 10 μM inhibitor concentration, activity with analog / without analog x 100
T1 construct: made in house
Experimental: In separate, representative assays, mappicine analogs were tested for their ability to inhibit the RNA-dependent DNA polymerase activity of HIV reverse transcriptase and for their ability to inhibit the RNase H activity of HIV reverse transcriptase. The assay for RNA-dependent DNA polymerase activity is discussed in Borkow, G. et al., “Inhibition of the Ribonuclease H and DNA Polymerase Activities of HIV-1 Reverse Transcriptase by N-(4-tert-Butylbenzoyl)-2-hydroxy-1-naphthaldehyde Hydrazone,” Biochemistry 1997, 36, 3179-3185, a copy of which is attached hereto, and the disclosure of which is incorporated herein by reference. Assays were carried out in the absence and in the presence of mappicine analogs (10 μM final concentration). The results are reported as % residual activity, which is the RNA-dependent DNA polymerase activity of the enzyme in the presence of the mappicine analog divided by the RNA-dependent activity of the enzyme in the absence of the mappicine analog, multiplied by 100.

SMILES	Residual activity (%) RNase H [1] [%]	Residual activity (%) Polymerase [2] [%]	Residual activity (%) RNase H ([1]; 10 µM)	Residual activity (%) Polymerase ([2]; 10 µM)
Cc1c(C(O)CCC2CCCCC2)cc2n(c1=O)Cc1c-2nc2ccc(F)cc2c1[Si](C)(C)C(C)(C)C (stereo not drawn) [4Bδ]	90	44	–	–
COc1ccc2nc3c(c(-c4ccccc4)c2c1)Cn1c-3cc(C(O)C(C)(C)C)c(C)c1=O (stereo not drawn) [3Dβ]	70	85	–	–
COc1ccc2nc3c(c(-c4ccccc4)c2c1)Cn1c-3cc(C(=O)Cc2ccccc2)c(C)c1=O [3Dεκ]	88	73	–	–
Cc1c(C(O)CCC2CCCCC2)cc2n(c1=O)Cc1c-2nc2ccccc2c1[Si](C)(C)C (racemic) [5Aδ]	78	83	–	–
CCC(O)c1cc2n(c(=O)c1C)Cc1c-2nc2ccc(OC)cc2c1[Si](C)(C)C(C)(C)C (stereo not drawn) [4Dα]	79	77	–	–
Cc1c(C(=O)C(C)(C)C)cc2n(c1=O)Cc1c-2nc2ccc(F)cc2c1-c1ccccc1 [3Bβκ]	95	61	–	–
Cc1ccc2nc3c(c(-c4ccccc4)c2c1)Cn1c-3cc(C(O)Cc2ccccc2)c(C)c1=O (racemic) [3Cε]	101	76	–	–
CCCCCCc1c2c(nc3ccc(OC)cc13)-c1cc(C(O)C(C)(C)C)c(C)c(=O)n1C2 (racemic) [8Dβ]	67	68	–	–
CCC(=O)c1cc2n(c(=O)c1C)Cc1c-2nc2ccc(F)cc2c1[Si](C)(C)C [5Bακ]	89	74	–	–
CCCCCCc1c2c(nc3ccc(F)cc13)-c1cc(C(=O)C(C)(C)C)c(C)c(=O)n1C2 [8Bβκ]	81	44	–	–
Cc1c(C(=O)C(C)(C)C)cc2n(c1=O)Cc1c-2nc2ccccc2c1[Si](C)(C)C(C)(C)C [4Aβκ]	70	79	–	–
Cc1c(C(O)C(C)(C)C)cc2n(c1=O)Cc1c-2nc2ccc(F)cc2c1-c1ccccc1 (racemic) [3Bβ]	75	78	–	–
Cc1ccc2nc3c(c([Si](C)(C)C(C)(C)C)c2c1)Cn1c-3cc(C(=O)CCC2CCCCC2)c(C)c1=O [4Cδκ]	96	52	–	–
CCC(=O)c1cc2n(c(=O)c1C)Cc1c-2nc2ccc(F)cc2c1[Si](C)(C)C(C)(C)C [4Bακ]	77	42	–	–
Cc1c(C(O)Cc2ccccc2)cc2n(c1=O)Cc1c-2nc2ccccc2c1-c1ccccc1 (stereo not drawn) [3Aε]	99	34	–	–
COc1ccc2nc3c(c([Si](C)(C)C)c2c1)Cn1c-3cc(C(O)Cc2ccccc2)c(C)c1=O (racemic) [5Dε]	70	48	–	–
COc1ccc2nc3c(c([Si](C)(C)C)c2c1)Cn1c-3cc(C(O)C(C)(C)C)c(C)c1=O (stereo not drawn) [5Dβ]	102	76	–	–
CCCCCCc1c2c(nc3ccc(C)cc13)-c1cc(C(=O)C(C)(C)C)c(C)c(=O)n1C2 [8Cβκ]	95	66	–	–

SMILES	Residual activity (%) RNase H [1] [%]	Residual activity (%) Polymerase [2] [%]	Residual activity (%) RNase H ([1]; 10 µM)	Residual activity (%) Polymerase ([2]; 10 µM)
Cc1c(C(O)Cc2ccccc2)cc2n(c1=O)Cc1c-2nc2ccc(F)cc2c1[Si](C)(C)C(C)(C)C (stereo not drawn) [4Bε]	89	61	–	–
Cc1ccc2nc3c(c(-c4ccccc4)c2c1)Cn1c-3cc(C(=O)CCC2CCCCC2)c(C)c1=O [3Cδκ]	93	65	–	–
CCC(O)c1cc2n(c(=O)c1C)Cc1c-2nc2ccc(C)cc2c1[Si](C)(C)C(C)(C)C (stereo not drawn) [4Cα]	91	94	–	–
CCC(=O)c1cc2n(c(=O)c1C)Cc1c-2nc2ccccc2c1-c1ccccc1 [3Aακ]	87	64	–	–
CCCCCCc1c2c(nc3ccccc13)-c1cc(C(=O)C(C)(C)C)c(C)c(=O)n1C2 [8Aβκ]	96	76	–	–
Cc1c(C(=O)CCC2CCCCC2)cc2n(c1=O)Cc1c-2nc2ccc(F)cc2c1[Si](C)(C)C [5Bδκ]	78	46	–	–
CCCCCCc1c2c(nc3ccccc13)-c1cc(C(=O)CCC3CCCCC3)c(C)c(=O)n1C2 [8Aδκ]	97	63	–	–
CCCCCCc1c2c(nc3ccc(F)cc13)-c1cc(C(O)CC)c(C)c(=O)n1C2 (stereo not drawn) [8Bα]	80	57	–	–
Cc1ccc2nc3c(c(-c4ccccc4)c2c1)Cn1c-3cc(C(O)C(C)(C)C)c(C)c1=O (racemic) [3Cβ]	84	70	–	–
COc1ccc2nc3c(c([Si](C)(C)C(C)(C)C)c2c1)Cn1c-3cc(C(O)C(C)(C)C)c(C)c1=O (racemic) [4Dβ]	91	47	–	–
COc1ccc2nc3c(c([Si](C)(C)C(C)(C)C)c2c1)Cn1c-3cc(C(=O)CCC2CCCCC2)c(C)c1=O [4Dδκ]	–	–	83% and 97%	50% and 64%
CCC(O)c1cc2n(c(=O)c1C)Cc1c-2nc2ccccc2c1[Si](C)(C)C (stereo not drawn) [5Aα]	–	–	93%	32%
CCC(=O)c1cc2n(c(=O)c1C)Cc1c-2nc2ccc(C)cc2c1[Si](C)(C)C [5Cακ]	109	93	–	–
CCCCCCc1c2c(nc3ccc(C)cc13)-c1cc(C(O)C(C)(C)C)c(C)c(=O)n1C2 (racemic) [8Cβ]	93	111	–	–
Cc1c(C(O)Cc2ccccc2)cc2n(c1=O)Cc1c-2nc2ccc(F)cc2c1[Si](C)(C)C (stereo not drawn) [5Bε]	88	49	–	–
Cc1c(C(O)CCC2CCCCC2)cc2n(c1=O)Cc1c-2nc2ccc(F)cc2c1-c1ccccc1 (racemic) [3Bδ]	99	81	–	–
Cc1c(C(O)CCC2CCCCC2)cc2n(c1=O)Cc1c-2nc2ccccc2c1[Si](C)(C)C(C)(C)C (racemic) [4Aδ]	95	45	–	–
CCCCCCc1c2c(nc3ccc(C)cc13)-c1cc(C(=O)CCC3CCCCC3)c(C)c(=O)n1C2 [8Cδκ]	95	79	–	–
